Drawing on patent US7652020B2, “Compounds for the treatment of inflammatory disorders” (Schering Corporation, priority 2004, dated 2010), this text covers Ki for 59 compounds.

The assay addresses T1, purified catalytic domain of recombinant human TACE (rhTACEc) (Homo sapiens, UniProt P78536, N452Q/S266A).
T1 construct: Residue 215 to 477 with two mutation (S266A and N452Q) and a 6×His tail; 6xHis (C); made in house; host or cells: baculovirus/Hi5 insect cells
Briefly: TACE kinetic assay: cleavage of internally quenched peptide substrate SPDL-3, fluorescence. The note with it: read-out: Ki. It is filed as biochemical.

Setting [1] is: TACE, representative compounds, numeric values.
[2] abbreviates: TACE inhibitory activity, class symbols.

pKi: −log10 of the molar value. Like-named read-outs stand apart in the source and are kept apart here. Bounds are passed on as bounds.

T1 sequence (P78536 215-477 S266A/N452Q): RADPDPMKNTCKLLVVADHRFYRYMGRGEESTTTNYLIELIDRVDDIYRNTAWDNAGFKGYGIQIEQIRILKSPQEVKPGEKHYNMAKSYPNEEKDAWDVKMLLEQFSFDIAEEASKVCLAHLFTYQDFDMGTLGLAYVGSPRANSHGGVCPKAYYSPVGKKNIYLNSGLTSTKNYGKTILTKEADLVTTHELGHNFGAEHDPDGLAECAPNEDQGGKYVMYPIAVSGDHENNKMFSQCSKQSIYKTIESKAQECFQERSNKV

`C[C@@H](NC(=O)[C@H](O)[C@@H](O)C(=O)N1CCC[C@@H]1c1ccn(-c2ccc(F)cc2)n1)c1ccc(-n2cccn2)cc1` [drawing 1317]: under setting [1], the pKi was 8.70.

Take `Cn1cnnc1[C@H](O)[C@@H](O)C(=O)NCC1CCN(c2ccc(F)cc2C#N)CC1` [Compound 2376]: the pKi under setting [2] was below 6.00.

For `CCCN(C(=O)[C@H](O)[C@@H](O)C(=O)N[C@H](C)c1ccc(-n2cccn2)cc1)C(C)c1cccc(Cl)c1` (some centres unmarked) [Compound 2486], the pKi under setting [2] was below 6.00.

For the compound `C[C@@H](NC(=O)[C@H](O)[C@@H](O)C(=O)N1CCCC1(C)c1nccs1)c1ccc(-n2cccn2)cc1` (some centres unmarked) [Compound 2251], the pKi under setting [2] was above 7.70.

With `C[C@@H](NC(=O)[C@H](O)[C@@H](O)C(=O)N1CCc2cccnc2C1)c1ccc(-n2cccn2)cc1` [Compound 2083], the pKi under setting [2] was 7.00 to 7.70.

As for `C[C@@H](NC(=O)[C@H](O)[C@@H](O)C(=O)N1Cc2ccccc2C1)c1ccc(-c2ccsc2)cc1`, the pKi under setting [1] is 8.42.

On to `CC(=O)Nc1nc([C@H]2CCCN2C(=O)[C@H](O)[C@@H](O)C(=O)N[C@H](C)c2ccc(-n3cccn3)cc2)cs1` [Compound 2579], for which the pKi under setting [2] is above 7.70.

Regarding `C[C@@H](NC(=O)[C@](C)(O)[C@@H](O)C(=O)N1Cc2cncnc2C1(C)C)c1ccc(-n2cccn2)cc1` [Compound 2047], the pKi under setting [2] was 6.00 to 7.00.

`CCOc1cc(F)ccc1-c1ccc(CNC(=O)[C@](C)(O)[C@@H](O)C(=O)N2Cc3cccnc3C2)cc1` [Compound 2033]: the pKi under setting [2] was above 7.70.

With `COc1cc([C@@H](C)NC(=O)[C@](C)(O)[C@@H](O)C(=O)N2Cc3cccnc3C2)ccc1Br` [Compound 2356], under setting [2], the pKi is below 6.00.

For the compound `C[C@@H](NC(=O)[C@H](O)[C@@H](O)C(=O)N1CCN2CCC[C@H]2C1)c1ccc(-n2cccn2)cc1` [Compound 2420], the pKi under setting [2] was 6.00 to 7.00.

On to `C[C@@H](NC(=O)[C@H](O)[C@@H](O)C(=O)N1Cc2cccnc2C1)c1cccc(OCc2ccccc2)c1` [Compound 2308], for which the pKi under setting [2] is below 6.00.

As to `C[C@@H](NC(=O)[C@H](O)[C@@H](O)C(=O)N1CCCCC1c1ccccc1)c1ccc(-n2cccn2)cc1` (some centres unmarked) [Compound 2410], under setting [2], the pKi is above 7.70.

In the case of `C[C@@H](NC(=O)[C@H](O)[C@@H](O)C(=O)N1Cc2cccnc2C1)c1cccc(O)c1` [Compound 2307], the negative logarithm of the Ki (pKi) under setting [2] was below 6.00.

Take `C[C@@H](NC(=O)[C@H](O)[C@@H](O)C(=O)N1CCCCC1)c1ccc(-n2cccn2)cc1` [Compound 2408]: the pKi under setting [2] is 7.00 to 7.70.

For `C[C@@H](NC(=O)[C@H](O)[C@@H](O)C(=O)N1CCC[C@@H]1c1csc(N2CCCCC2)n1)c1ccc(-n2cccn2)cc1` [Compound 2258], the pKi under setting [2] was 7.00 to 7.70.

In the case of `CNc1nc([C@H]2CCCN2C(=O)[C@H](O)[C@@H](O)C(=O)N[C@H](C)c2ccc(-n3cccn3)cc2)cs1` [Compound 2252], the pKi under setting [2] is above 7.70.

Regarding `C[C@@H](NC(=O)[C@H](O)[C@@H](O)C(=O)N1CCCN1c1cccc(Cl)c1)c1ccc(-n2cccn2)cc1` [Compound 2495], the pKi under setting [2] is 6.00 to 7.00.

In the case of `C[C@@H](NC(=O)[C@](C)(O)[C@@H](O)C(=O)N1Cc2ccncc2C1)c1ccc(-n2cccn2)cc1` [Compound 2039], the pKi under setting [2] is above 7.70.

As for `N#Cc1cc(F)ccc1N1CCC(CNC(=O)[C@H](O)[C@@H](O)c2cnccn2)CC1` [Compound 2387], the pKi under setting [2] was below 6.00.

As for `COc1cc([C@@H](C)NC(=O)[C@](C)(O)[C@@H](O)C(=O)N2Cc3cccnc3C2)ccc1-n1cccn1` [Compound 2355], under setting [2], the pKi is above 7.70.

In the case of `C[C@@H](NC(=O)[C@H](O)[C@@H](O)C(=O)N1CCC[C@@H]1c1csc2nccn12)c1ccc(-n2cccn2)cc1` [Compound 2506], the pKi under setting [2] is above 7.70.

With `N#Cc1cc(F)ccc1N1CCC(CNC(=O)[C@H](O)[C@@H](O)C(=O)N2Cc3cccnc3C2)CC1` [Compound 2003], the pKi under setting [2] is 7.00 to 7.70.

With `Cn1c(-c2ccccc2)cnc1[C@H](O)[C@@H](O)C(=O)NCC1CCN(c2ccc(F)cc2C#N)CC1` [Compound 2402], the pKi under setting [2] is below 6.00.

Take `CNc1nc([C@H]2CCCN2C(=O)[C@H](O)[C@@H](O)C(=O)N[C@H](C)c2ccc(-n3cccn3)cc2)c(C#N)s1` [Compound 2269]: the pKi under setting [2] is above 7.70.

With `C[C@@H](NC(=O)[C@H](O)[C@@H](O)C(=O)N1Cc2ccc[n+]([O-])c2C1)c1ccc(-n2cccn2)cc1` [Compound 2030], under setting [2], the pKi was 7.00 to 7.70.

Consider `CC(C)Nc1nc([C@@H]2c3ccccc3CN2C(=O)[C@H](O)[C@@H](O)C(=O)N[C@H](C)c2ccc(-n3cccn3)cc2)cs1` [Compound 2593], for which the pKi under setting [2] is above 7.70.

Regarding `CC(C)CN(C(=O)[C@H](O)[C@@H](O)C(=O)N[C@H](C)c1ccc(-n2cccn2)cc1)C(C)c1cccc(Cl)c1` (some centres unmarked) [Compound 2482], the negative logarithm of the Ki (pKi) under setting [2] was below 6.00.

Turning to `Cn1c(Br)cnc1[C@H](O)[C@@H](O)C(=O)NCC1CCN(c2ccc(F)cc2C#N)CC1` [Compound 2372], the negative logarithm of the Ki (pKi) under setting [2] is below 6.00.

In the case of `C[C@@H](NC(=O)[C@H](O)[C@@H](O)C(=O)N1CCc2ccc(F)cc2C1)c1ccc(-n2cccn2)cc1` [Compound 2439], the pKi under setting [2] was above 7.70.

`C[C@@H](NC(=O)[C@H](O)[C@@H](O)C(=O)N1CCC[C@@H]1c1ccn(C)n1)c1ccc(-n2cccn2)cc1` [Compound 2248]: the pKi under setting [2] is above 7.70.

`C[C@@H](NC(=O)[C@H](O)[C@@H](O)C(=O)N1CC=C[C@@H]1c1cccc(Cl)c1)c1ccc(-n2cccn2)cc1` [drawing 1295]: the pKi under setting [1] was 9.31.

On to `C[C@@H](NC(=O)[C@H](O)[C@@H](O)C(=O)N1CCCC1(C)c1ccccc1)c1ccc(-n2cccn2)cc1` (some centres unmarked) [Compound 2235], for which the pKi under setting [2] is above 7.70.

In the case of `CNc1nc([C@H]2C[C@H]3C[C@H]3N2C(=O)[C@H](O)[C@@H](O)C(=O)N[C@H](C)c2ccc(-n3cccn3)cc2)cs1` [drawing 1312], the negative-log Ki (pKi) under setting [1] is 8.85.

For the compound `C[C@H]1CN(c2ccccc2C#N)CCC1CNC(=O)[C@H](O)[C@@H](O)C(=O)N1Cc2ccccc2C1` (some centres unmarked) [Compound 2146], under setting [2], the pKi is 6.00 to 7.00.

On to `C[C@@H](NC(=O)[C@H](O)[C@@H](O)C(=O)N1CCn2ccnc2C1)c1ccc(-n2cccn2)cc1` [Compound 2082], for which the pKi under setting [2] was 6.00 to 7.00.

For `C[C@@H]1CN(c2ccc(F)cc2C#N)CCC1CNC(=O)[C@H](O)[C@@H](O)C(=O)N1CCCC1` (some centres unmarked) [Compound 2150], the pKi under setting [2] was 7.00 to 7.70.

Consider `C[C@@H](NC(=O)[C@](C)(O)[C@@H](O)C(=O)N1CCCCC1c1ccccc1)c1ccc(-n2cccn2)cc1` (some centres unmarked) [Compound 2411], for which the pKi under setting [2] was below 6.00.

Consider `N#Cc1cc(F)ccc1N1CCC(CNC(=O)[C@H](N)[C@@H](O)C(=O)N2CCCC2)CC1` [Compound 2460], for which, under setting [2], the pKi was below 6.00.

`CC(C)Nc1nc([C@H]2c3ccc(Cl)cc3CCN2C(=O)[C@H](O)[C@@H](O)C(=O)N[C@H](C)c2ccc(-n3cccn3)cc2)cs1` [Compound 2589]: under setting [2], the pKi is above 7.70.

For `CC#CCOc1cc([C@@H](C)NC(=O)[C@H](O)[C@@H](O)C(=O)N2Cc3cccnc3C2)ccc1-n1cccn1` [drawing 1292], the pKi under setting [1] is 9.60.

With `C[C@@H](NC(=O)[C@H](O)[C@@H](O)C(=O)N1CCc2ncccc2C1)c1ccc(-n2cccn2)cc1` [Compound 2077], under setting [2], the pKi was 7.00 to 7.70.

Take `O=C([C@H](O)[C@@H](O)c1cncc(-c2ccccc2)n1)N1Cc2ccccc2C1` [Compound 2391]: the pKi under setting [2] was below 6.00.

In the case of `C[C@@H](NC(=O)[C@H](O)[C@@H](O)C(=O)N1CC=C[C@H]1c1cccc(Cl)c1)c1ccc(-n2cccn2)cc1` [Compound 2263], the pKi under setting [2] is 6.00 to 7.00.

Regarding `Cn1ccnc1[C@H](O)[C@@](C)(O)C(=O)NCC1CCN(c2ccc(F)cc2C#N)CC1` [Compound 2395], under setting [2], the pKi is 6.00 to 7.00.

`CCOc1cc(F)ccc1-c1ccc(CNC(=O)[C@H](O)[C@@H](O)C(=O)N2CCCC2)nc1` [Compound 2349]: the pKi under setting [2] was above 7.70.

As for `CNc1nc([C@H]2CCCN2C(=O)[C@H](O)[C@@H](O)C(=O)N[C@H](C)c2ccc(-n3cccn3)cc2)c(C)s1` [Compound 2268], the negative-log Ki (pKi) under setting [2] is above 7.70.

`C[C@@H](NC(=O)[C@H](O)[C@@H](O)C(=O)N1CC2CC1CN2c1ccc(Cl)cc1)c1ccc(-n2cccn2)cc1` (some centres unmarked) [Compound 2419]: the pKi under setting [2] was 6.00 to 7.00.

As for `C[C@@H](NC(=O)[C@H](O)[C@@H](O)C(=O)N1C2CCC1c1cc(F)c(F)cc12)c1ccc(-n2cccn2)cc1` [Compound 2096], under setting [2], the pKi is 6.00 to 7.00.

For the compound `Cc1cccc(C)c1Cc1csc(CNC(=O)[C@H](O)[C@@H](O)C(=O)N2CCCC2c2cccc(CN3CCCC3)c2)n1` (some centres unmarked), the pKi under setting [1] was 8.85.

Regarding `CCNc1nnc(C2c3ccccc3CN2C(=O)[C@H](O)[C@@H](O)C(=O)N[C@H](C)c2ccc(-n3cccn3)cc2)o1` (some centres unmarked), the pKi under setting [1] was 9.25.

`O=C(NCC1CCN(c2ccc(F)cc2Br)CC1)[C@H](O)[C@@H](O)C(=O)N1Cc2ccccc2C1` [Compound 2139]: the pKi under setting [2] was above 7.70.

Regarding `C[C@@H](NC(=O)[C@H](O)[C@@H](O)C(=O)N1Cc2cncnc2C1)c1ccc(-n2cccn2)cc1` [Compound 2044], the pKi under setting [2] is above 7.70.

On to `CCNc1nc([C@H]2c3ccccc3CN2C(=O)[C@H](O)[C@@H](O)C(=O)N[C@H](C)c2ccc(-n3cccn3)cc2)cs1` [Compound 2594], for which the pKi under setting [2] is above 7.70.

For the compound `COc1nc(CNC(=O)[C@H](O)[C@@H](O)C(=O)N2CCCC2)ccc1-c1ccccc1OC(F)(F)F` [Compound 2346], under setting [2], the pKi was below 6.00.

As for `CCOC(=O)c1ccccc1-c1ccc(CNC(=O)[C@H](O)[C@@H](O)C(=O)N2CCC[C@@H]2c2ccccc2)cc1`, the pKi under setting [1] is 8.44.

`C[C@@H](NC(=O)[C@H](O)[C@@H](O)C(=O)N1CCCCC1c1ccc(Cl)cc1)c1ccc(-n2cccn2)cc1` (some centres unmarked) [Compound 2418]: the pKi under setting [2] was 7.00 to 7.70.

`C[C@@H](NC(=O)[C@H](O)[C@@H](O)C(=O)N1CCc2nc(N)sc2C1)c1ccc(-n2cccn2)cc1` [Compound 2081]: the pKi under setting [2] was above 7.70.

Regarding `CNc1nc([C@H]2C[C@H]3C[C@H]3N2C(=O)[C@H](O)[C@@H](O)C(=O)N[C@H](C)c2ccc(-n3cccn3)cc2)cs1` [Compound 2245], under setting [2], the pKi is above 7.70.

Usually pKi stands for −log10 of the Ki, conventionally taken in molar units.
